Experimental data as given in publication PMC4760428 (Angewandte Chemie (International Ed. in English), 2016).
Peptide text beside a SMILES is read from it.

Molecular target: WT cyclophilin (Homo sapiens, UniProt P62937)
Experiment: FRET equilibrium binding to wild-type cyclophilin

Sequence of WT cyclophilin (P62937 whole entry): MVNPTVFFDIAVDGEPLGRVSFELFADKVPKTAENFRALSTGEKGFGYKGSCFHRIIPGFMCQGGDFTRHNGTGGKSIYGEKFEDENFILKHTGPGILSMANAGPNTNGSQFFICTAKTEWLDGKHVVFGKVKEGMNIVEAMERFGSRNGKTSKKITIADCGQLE

Kd: 164 ± 32 µM
SMILES: C[C@H](NS(=O)(=O)c1cccc2c(N(C)C)cccc12)C(=O)N[C@@H](C)C(=O)N1CCC[C@H]1C(=O)N[C@@H](Cc1ccccc1)C(=O)O [WT peptide] (HELM PEPTIDE1{[CN(C)c1cccc2c(S(=O)(=O)[*:2])cccc12].A.A.P.F}$$$$V2.0)
